In ChEMBL document CHEMBL1201862, “PubChem BioAssay data set” (2004):
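These data come from cells grown in 96-well plates and exposed to compound for 48 hours at five concentrations. The concentration for 50% growth inhibition is given as GI50.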 Active and inactive are the calls of the source. No stated cut-off is given here; in the data, active = GI50 up to about 1.1 µM and inactive = higher.

Assays:
Experiment in all cases: DTP human tumour cell line panel, 48 h
A498 = system: A498
CAKI-1 = system: CAKI-1
CCRF-CEM = system: CCRF-CEM
COLO 205 = system: COLO 205
EKVX = system: EKVX
HCT-116 = system: HCT-116
LOX IMVI = system: LOX IMVI
Malme-3M = system: Malme-3M
NCI-H460 = system: NCI-H460
NCI-H522 = system: NCI-H522
SK-MEL-5 = system: SK-MEL-5
SK-OV-3 = system: SK-OV-3
SN12C = system: SN12C
SNB-75 = system: SNB-75
SNB-78 = system: SNB-78
SW-620 = system: SW-620
U-251 = system: U-251
UACC-257 = system: UACC-257

Measured: GI50

[N-]=[N+]=NC1(Cc2ccccc2)C(=O)Nc2ccccc2C1=O (stereo not drawn)
inactive: A498 > 100 µM | CAKI-1 > 100 µM | CCRF-CEM > 100 µM | COLO 205 > 100 µM | EKVX > 100 µM | HCT-116 > 100 µM | LOX IMVI > 100 µM | Malme-3M > 100 µM | NCI-H460 > 100 µM | NCI-H522 87.1 µM | SK-MEL-5 > 100 µM | SK-OV-3 > 100 µM | SN12C > 100 µM | SNB-75 > 100 µM | SNB-78 52.8 µM | SW-620 > 100 µM | U-251 > 100 µM | UACC-257 > 100 µM

COc1cc(Nc2nc3cc(C(F)(F)F)ccc3nc2C)cc(OC)c1OC
inactive: A498 3.81 µM | CAKI-1 7.11 µM | CCRF-CEM 5.74 µM | COLO 205 12.1 µM | EKVX 16.6 µM | HCT-116 8.81 µM | LOX IMVI 3.13 µM | Malme-3M 13.6 µM | NCI-H460 4.11 µM | NCI-H522 12.3 µM | SK-MEL-5 9.79 µM | SK-OV-3 14.4 µM | SN12C 10.4 µM | SNB-75 15.5 µM | SNB-78 11.1 µM | SW-620 13.3 µM | U-251 9.95 µM | UACC-257 6.37 µM

CCCCCNC(=O)CCCCCCCCCCCNC(=O)CCCCCCCCCCN1C=CC(=CC=C2C=CC(=O)C=C2)C=C1
inactive: A498 > 100 µM | CAKI-1 > 100 µM | CCRF-CEM 15.1 µM | COLO 205 15.3 µM | EKVX > 100 µM | HCT-116 > 100 µM | LOX IMVI 34.8 µM | Malme-3M 34.9 µM | NCI-H460 > 100 µM | NCI-H522 32.4 µM | SK-MEL-5 35.2 µM | SK-OV-3 > 100 µM | SN12C 39.4 µM | SNB-75 19.4 µM | SNB-78 15.3 µM | SW-620 54.1 µM | U-251 32.1 µM | UACC-257 16.6 µM

COc1cc(CCc2ccc(N)cc2)cc(OC)c1OC
inactive: A498 56.1 µM | CAKI-1 67.8 µM | CCRF-CEM 49.4 µM | COLO 205 18.9 µM | EKVX > 66.5 µM | HCT-116 50.9 µM | LOX IMVI 61 µM | Malme-3M 28.2 µM | NCI-H460 55.1 µM | NCI-H522 31.5 µM | SK-MEL-5 29.4 µM | SK-OV-3 > 91.4 µM | SN12C > 54.8 µM | SNB-75 > 56 µM | SNB-78 39.1 µM | SW-620 45.5 µM | U-251 > 53.2 µM | UACC-257 > 94.4 µM

C#C[C@]1(O)CC[C@H]2[C@@H]3CCc4cc(O)ccc4[C@H]3CC[C@@]21C [ETHINYL ESTRADIOL]
inactive: A498 20.1 µM | CAKI-1 52.6 µM | CCRF-CEM 23.1 µM | COLO 205 31.3 µM | EKVX 11.7 µM | HCT-116 23 µM | LOX IMVI 25.2 µM | Malme-3M 30.5 µM | NCI-H460 21.7 µM | NCI-H522 10.9 µM | SK-MEL-5 11.1 µM | SK-OV-3 24.4 µM | SN12C 36.8 µM | SNB-75 12.6 µM | SNB-78 33.4 µM | SW-620 16.1 µM | U-251 7.8 µM | UACC-257 41 µM

Cc1ccccc1NC(=O)c1ccc([N+](=O)[O-])cc1
inactive: A498 > 100 µM | CAKI-1 > 100 µM | CCRF-CEM > 100 µM | COLO 205 > 100 µM | EKVX > 100 µM | HCT-116 > 100 µM | LOX IMVI > 100 µM | Malme-3M > 100 µM | NCI-H460 > 100 µM | NCI-H522 28 µM | SK-MEL-5 84.9 µM | SK-OV-3 > 100 µM | SN12C > 100 µM | SNB-75 > 100 µM | SNB-78 > 100 µM | SW-620 > 100 µM | U-251 > 100 µM | UACC-257 > 100 µM
